Measurements from US20180370912A1, “COMPOUNDS AND METHODS FOR TREATING DISEASES MEDIATED BY PROTEIN DISULFIDE ISOMERASE” (Beth Israel Deaconess Medical Center, Inc., priority 2017, published 2018).

Experiments:
thioredoxin = molecular target: T1, thioredoxin (Homo sapiens, UniProt P10599); assay: Insulin reductase assay, thiol isomerase selectivity; assay type: biochemical; details: 10-fold IC50, FIG. 2
T1 sequence (P10599 1-105): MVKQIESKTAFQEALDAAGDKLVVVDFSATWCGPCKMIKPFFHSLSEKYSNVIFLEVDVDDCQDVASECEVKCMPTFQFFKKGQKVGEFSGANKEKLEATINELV
Method: (§1) The thiol isomerase-catalyzed reduction of insulin was assayed by measuring the increase in turbidity as detected at an optical density (OD) of 650 nm using a Spectramax M3 (Molecular Devices, Sunnyvale, Calif.). The validation assay consisted of 175 nM of PDI in a solution containing 100 mM potassium phosphate (pH 7.4) containing 0.2 mM bovine insulin, 2 mM EDTA, and 0.3 mM DTT (all purchased from Sigma Aldrich, St. Louis, Mo.), inhibitors were used at the concentrations indicated. The reaction was performed at 25° C. for one hour and thirty minutes. For assays of thiol isomerase selectivity, 11 nM PDI, ERp57 or Thioredoxin, or 33 nM ERpS were assayed in similar buffer conditions as described above and inhibitors were used at the indicated concentration. The reaction was performed at 37° C. for forty-five minutes. For assays of isolated domains studies, 400 nM protein was used, except for a, a′ and ab, in which 800 nM protein was used. The assay was performed in similar buffer conditions as described above. Bepristat 2a and N-(2,4-Dimethoxyphenyl)-N-(1-oxo-2-propyn-1-yl)-2-(2-thienyl)glycyl-glycine ethyl ester (PACMA-31) were used at a final concentration of 15 μM in these studies.

ERp5 = molecular target: T2, ERp5 (Homo sapiens, UniProt Q15084); assay: as above; assay type: biochemical; details: 10-fold IC50, FIG. 2
T2 construct: recombinant His-tagged full-length ERp5, ERp72 and PDI domain fragments; His; made in house; host or cells: Escherichia coli Origami B (DE3), pET-15b
T2 sequence (Q15084 20-440): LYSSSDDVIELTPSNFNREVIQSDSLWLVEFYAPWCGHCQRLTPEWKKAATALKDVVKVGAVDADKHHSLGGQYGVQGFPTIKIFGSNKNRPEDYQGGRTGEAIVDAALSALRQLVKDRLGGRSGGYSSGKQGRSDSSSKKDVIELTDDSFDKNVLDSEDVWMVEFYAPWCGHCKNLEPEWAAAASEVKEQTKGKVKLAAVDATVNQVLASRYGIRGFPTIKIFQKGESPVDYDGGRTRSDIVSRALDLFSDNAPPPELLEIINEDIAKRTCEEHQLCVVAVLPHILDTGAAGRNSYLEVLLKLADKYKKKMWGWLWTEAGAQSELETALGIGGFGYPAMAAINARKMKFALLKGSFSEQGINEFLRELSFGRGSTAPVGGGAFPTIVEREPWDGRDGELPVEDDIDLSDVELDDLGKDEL
Method: as §1

inhibition of reductase activity of thioredoxin (thioredoxin): demonstrated inhibitory activity
inhibition of reductase activity of ERp5 (ERp5): demonstrated inhibitory activity
Compound: C#CC(=O)N(c1ccc(OC)cc1OC)C(C(=O)NCC(=O)OCC)c1cccs1 (centres unmarked) [PACMA-31, N-(2,4-Dimethoxyphenyl)-N-(1-oxo-2-propyn-1-yl)-2-(2-thienyl)glycyl-glycine ethyl ester, reference compound]
